Laboratory results reported in patent US20230031406A1, “COMPOUNDS AND COMPOSITIONS FOR TREATING CONDITIONS ASSOCIATED WITH NLRP ACTIVITY” (Novartis AG, priority 2018, published 2023).

What follows are compounds tested on PMA-differentiated THP-1 cells (assay: IL-1β production in PMA-differentiated THP-1 cells stimulated with gramicidin (hTHP-1 assay containing 2% fetal bovine serum; Procedures 1 and 2)). Details: Homo sapiens, THP-1, Table B1; 2% fetal bovine serum; class symbols; read-out: Average IC50 of compounds in hTHP-1 assay: hTHP-1 IC50.
Format: cell-based, human
In short: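 PMA 20 ng/ml 16-18 h → trypsinise → 50,000 cells/well, RPMI/2% FBS; cpd 1 h (11-pt, 100–0.0017 μM; DMSO 0.37%); gramicidin 5 μM, 2 h; spin; supernatant IL-1β via HTRF.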

Row | SMILES | IC50 [nM]
1 | CC(C)(O)c1csc(S(N)(=O)=NC(=O)Nc2c3c(nc4c2CCC42CC2)CCC3)c1 (stereo not drawn) [Compound 114] | 40 to 200
2 | CC(C)c1cnc(F)c(C(C)C)c1NC(=O)N=S(N)(=O)c1cnc(C(C)(C)O)s1 (stereo not drawn) [Compound 115, N′-((2-fluoro-3,5-diisopropylpyridin-4-yl)carbamoyl)-2-(2-hydroxypropan-2-yl)thiazole-5-sulfonimidamide] | 1000 to 5000
3 | Cc1nc2c(c(NC(=O)N=S(N)(=O)c3cnc(C(C)(C)O)s3)c1C(C)C)CCC2 (stereo not drawn) [Compound 116, 2-(2-hydroxypropan-2-yl)-N′-((3-isopropyl-2-methyl-6,7-dihydro-5H-cyclopenta[b]pyridin-4-yl)carbamoyl)thiazole-5-sulfonimidamide] | 5000 to 30000
4 | CCc1c(C)nc2c(c1NC(=O)N=S(N)(=O)c1cnc(C(C)(C)O)s1)CCC2 (stereo not drawn) [Compound 117, N′-((3-ethyl-2-methyl-6,7-dihydro-5H-cyclopenta[b]pyridin-4-yl)carbamoyl)-2-(2-hydroxypropan-2-yl)thiazole-5-sulfonimidamide] | 5000 to 30000
5 | CC(C)(O)c1nc(CO)c(S(N)(=O)=NC(=O)Nc2c3c(nc4c2CCC4(C)C)CCC3)s1 (stereo not drawn) [Compound 121, N′-((3,3-dimethyl-1,2,3,5,6,7-hexahydrodicyclopenta[b,e]pyridin-8-yl)carbamoyl)-4-(hydroxymethyl)-2-(2-hydroxypropan-2-yl)thiazole-5-sulfonimidamide] | 200 to 1000
6 | CC1(C)CCc2c1nc1c(c2NC(=O)N=S(N)(=O)c2ccn(C(F)F)n2)CCC1 (stereo not drawn) [Compound 122, 1-(difluoromethyl)-N′-((3,3-dimethyl-1,2,3,5,6,7-hexahydrodicyclopenta[b,e]pyridin-8-yl)carbamoyl)-1H-pyrazole-3-sulfonimidamide] | 200 to 1000
7 | CC(C)c1csc(S(N)(=O)=NC(=O)Nc2c3c(nc4c2CCC4C)C(C)CC3)c1 (stereo not drawn) [Compound 123, N′-((3,5-dimethyl-1,2,3,5,6,7-hexahydrodicyclopenta[b,e]pyridin-8-yl)carbamoyl)-4-isopropylthiophene-2-sulfonimidamide] | 1000 to 5000
8 | Cc1c(C2CC2)nc2c(c1NC(=O)N=S(N)(=O)c1cnc(C(C)(C)O)s1)CCC2 (stereo not drawn) [Compound 124, N′-((2-cyclopropyl-3-methyl-6,7-dihydro-5H-cyclopenta[b]pyridin-4-yl)carbamoyl)-2-(2-hydroxypropan-2-yl)thiazole-5-sulfonimidamide] | 200 to 1000
9 | CC(C)n1ccc(S(N)(=O)=NC(=O)Nc2c3c(nc4c2CCC4(C)C)CCC3)n1 (stereo not drawn) [Compound 126, N′-((3,3-dimethyl-1,2,3,5,6,7-hexahydrodicyclopenta[b,e]pyridin-8-yl)carbamoyl)-1-isopropyl-1H-pyrazole-3-sulfonimidamide] | 40 to 200
10 | CC(C)(O)c1csc(S(N)(=O)=NC(=O)Nc2c3c(nc4c2CCC4(C)C)CCC3)c1 (stereo not drawn) [Compound 127, N′-((3,3-dimethyl-1,2,3,5,6,7-hexahydrodicyclopenta[b,e]pyridin-8-yl)carbamoyl)-4-(2-hydroxypropan-2-yl)thiophene-2-sulfonimidamide] | 40 to 200
11 | CC(C)(O)c1ncc(S(=N)(=O)NC(=O)Nc2c3c(nc4c2CCC4)CCC3)s1 (stereo not drawn) [Compound 128, N-((1,2,3,5,6,7-hexahydrodicyclopenta[b,e]pyridin-8-yl)carbamoyl)-2-(2-hydroxypropan-2-yl)thiazole-5-sulfonimidamide] | 200 to 1000
12 | CC(C)(O)c1ncc(S(N)(=O)=NC(=O)Nc2c3c(nc4c2CCC42CC2)CCC3)s1 (stereo not drawn) [Compound 136, 2-(2-hydroxypropan-2-yl)-N′-((1′,5′,6′,7′-tetrahydro-2′H-spiro[cyclopropane-1,3′-dicyclopenta[b,e]pyridin]-8′-yl)carbamoyl)thiazole-5-sulfonimidamide] | 40 to 200
13 | Cc1nc2c(c(NC(=O)N=S(N)(=O)c3cnc(C(C)(C)O)s3)c1C)CCC2 (stereo not drawn) [Compound 138, N′-((2,3-dimethyl-6,7-dihydro-5H-cyclopenta[b]pyridin-4-yl)carbamoyl)-2-(2-hydroxypropan-2-yl)thiazole-5-sulfonimidamide] | 5000 to 30000

Results, then the compound that gave them:

Row | IC50 [nM] | SMILES
14 | 1000 to 5000 | CC(C)(O)c1nc(CCO)c(S(N)(=O)=NC(=O)Nc2c3c(nc4c2CCC4)CCC3)s1 (stereo not drawn) [Compound 118, N-((1,2,3,5,6,7-hexahydrodicyclopenta[b,e]pyridin-8-yl)carbamoyl)-4-(2-hydroxyethyl)-2-(2-hydroxypropan-2-yl)thiazole-5-sulfonimidamide]
15 | 1000 to 5000 | CC(C)n1ccc(S(N)(=O)=NC(=O)Nc2c3c(nc4c2CCC4)CCC3)n1 (stereo not drawn) [Compound 119, N′-((1,2,3,5,6,7-hexahydrodicyclopenta[b,e]pyridin-8-yl)carbamoyl)-1-isopropyl-1H-pyrazole-3-sulfonimidamide]
16 | 200 to 1000 | CNS(=O)(=NC(=O)Nc1c2c(nc3c1CCC3)CCC2)c1ccc(CN(C)C)cc1 (stereo not drawn) [Compound 120, 4-((Dimethylamino)methyl)-N′-((1,2,3,5,6,7-hexahydrodicyclopenta[b,e]pyridin-8-yl)carbamoyl)-N-methylbenzenesulfonimidamide]
17 | 1000 to 5000 | CN(C)Cc1ccc(S(N)(=O)=NC(=O)Nc2c3c(nc4c2CCC4(C)C)CCC3)cc1 (stereo not drawn) [Compound 125, N′-((3,3-dimethyl-1,2,3,5,6,7-hexahydrodicyclopenta[b,e]pyridin-8-yl)carbamoyl)-4-((dimethylamino)methyl)benzenesulfonimidamide]
18 | 200 to 1000 | CC1CCc2c1nc1c(c2NC(=O)N=S(N)(=O)c2ccn(C(C)C)n2)CCC1 (stereo not drawn) [Compound 129, 1-isopropyl-N′-((3-methyl-1,2,3,5,6,7-hexahydrodicyclopenta[b,e]pyridin-8-yl)carbamoyl)-1H-pyrazole-3-sulfonimidamide]
19 | 5000 to 30000 | CN(C)Cc1ccc(S(N)(=O)=NC(=O)Nc2c3c(nc4c2CCC4)CCC3)cc1 (stereo not drawn) [Compound 130, 4-((dimethylamino)methyl)-N′-((1,2,3,5,6,7-hexahydrodicyclopenta[b,e]pyridin-8-yl)carbamoyl)benzenesulfonimidamide]
20 | 200 to 1000 | CC1CCc2c1nc1c(c2NC(=O)N=S(N)(=O)c2ccc(CN(C)C)cc2F)CCC1 (stereo not drawn) [Compound 139, 4-((dimethylamino)methyl)-2-fluoro-N′-((3-methyl-1,2,3,5,6,7-hexahydrodicyclopenta[b,e]pyridin-8-yl)carbamoyl)benzenesulfon-imidamide]

Same assay, conditions: Homo sapiens, THP-1, Table B1; 2% fetal bovine serum; numeric bounds; read-out: Average IC50 of compounds in hTHP-1 assay: hTHP-1 IC50

Row | SMILES | IC50 [nM]
21 | Cc1nc(C)c(C)c(NC(=O)N=S(N)(=O)c2cnc(C(C)(C)O)s2)c1C (stereo not drawn) [Compound 133, 2-(2-hydroxypropan-2-yl)-N′-((2,3,5,6,-tetramethylpyridin-4-yl)carbamoyl)thiazole-5-sulfonimidamide] | > 14000
22 | CCc1cc(NC(=O)N=S(N)(=O)c2cnc(C(C)(C)O)s2)c2c(n1)CCC2 (stereo not drawn) [Compound 137, N′-((2-ethyl-6,7-dihydro-5H-cyclopenta[b]pyridin-4-yl)carbamoyl)-2-(2-hydroxypropan-2-yl)thiazole-5-sulfonimidamide] | > 30000

Now from value to compound:

Row | IC50 [nM] | SMILES
23 | > 30000 | CN(C)Cc1ccc(S(=O)(=NC(=O)Nc2c3c(nc4c2CCC4)CCC3)NC(=O)OC(C)(C)C)cc1 (stereo not drawn) [Compound 113, tert-butyl (4-((dimethylamino)methyl)-N-((1,2,3,5,6,7-hexahydrodicyclopenta[b,e]pyridin-8-yl)carbamoyl)phenylsulfonimidoyl)carbamate]
24 | > 27000 | CC(C)c1ncc(F)c(C(C)C)c1NC(=O)N=S(N)(=O)c1ccc(CN(C)C)cc1 (stereo not drawn) [Compound 132, 4-((dimethylamino)methyl)-N′-((5-fluoro-2,4-diisopropylpyridin-3-yl)carbamoyl)benzenesulfon-imidamide]

Same assay, conditions: Table B1; 2% fetal bovine serum; class symbols; read-out: Average IC50 of compounds in hTHP-1 assay: hTHP-1 IC50

Row | SMILES | IC50 [nM]
25 | CC1CCc2c1nc1c(c2NC(=O)N=S(N)(=O)c2cc(C(C)(C)O)cs2)CCC1C (stereo not drawn) [Compound 131, N′-((3,5-dimethyl-1,2,3,5,6,7-hexahydrodicyclopenta[b,e]pyridin-8-yl)carbamoyl)-4-(2-hydroxypropan-2-yl)thiophene-2-sulfonimidamide] | 200 to 1000
26 | CC1CCc2c1nc1c(c2NC(=O)N=S(N)(=O)c2cc(C(C)(C)O)cs2)CCC1C [Compound 131a, (R,S,S) and (R,R,R)-N′-((3,5-dimethyl-1,2,3,5,6,7-hexa-hydrodicyclo-penta[b,e]pyridin-8-yl)carbamoyl)-4-(2-hy-droxypropan-2-yl)thiophene-2-sulfonimidamide] | 200 to 1000
27 | CC1CCc2c1nc1c(c2NC(=O)N=S(N)(=O)c2cc(C(C)(C)O)cs2)CCC1C [Compound 131aab, (R,R,S) and (R,S,R)-N′-((3,5-dimethyl-1,2,3,5,6,7-hexa-hydrodicyclo-penta[b,e]pyridin-8-yl)carbamoyl)-4-(2-hydroxypropan-2-yl)thiophene-2-sulfonimidamide] | 200 to 1000
28 | CC1CCc2c1nc1c(c2NC(=O)N=S(N)(=O)c2cc(C(C)(C)O)cs2)CCC1C [Compound 131b, (S) and (S,R,R) and (S,S,S)-N′-((3,5-dimethyl-1,2,3,5,6,7-hexahydro-dicyclopenta[b,e]py-ridin-8-yl)carbamoyl)-4-(2-hydroxypropan-2-yl)thiophene-2-sulfonimidamide] | 5000 to 30000
29 | CC1CCc2c1nc1c(c2NC(=O)N=S(N)(=O)c2ccc(CN(C)C)cc2)CCC1 (stereo not drawn) [Compound 134, 4-((dimethylamino)methyl)-N′-((3-methyl-1,2,3,5,6,7-hexahydrodicyclopenta[b,e]pyridin-8-yl)carbamoyl)benzenesulfon-imidamide] | 1000 to 5000
30 | CC1CCc2c1nc1c(c2NC(=O)N=S(N)(=O)c2ncc(C(C)(C)O)s2)CCC1 (stereo not drawn) [Compound 140, 5-(2-hydroxypropan-2-yl)-N′-((3-methyl-1,2,3,5,6,7-hexahydrodicyclopenta[b,e]pyridin-8-yl)carbamoyl)thiazole-2-sulfonimidamide] | 40 to 200
